Reference: paper PMC6409085, “Three odorant-binding proteins are involved in the behavioral response of Sogatella furcifera to rice plant volatiles” (PeerJ, 2019)
Where “and” joins values, the source holds several entries; their conditions need not be identical. Equal entries are not always repeated.

Experiments:
SfurOBP1 = SfurOBP1 (Sogatella furcifera, UniProt V5T8N5); assay: biochemical; assay type: binding; details: for Fluorescence competitive binding assay, fluorescence intensity: OBP1, three replicate columns
SfurOBP1, sequence (V5T8N5 entry or part of it): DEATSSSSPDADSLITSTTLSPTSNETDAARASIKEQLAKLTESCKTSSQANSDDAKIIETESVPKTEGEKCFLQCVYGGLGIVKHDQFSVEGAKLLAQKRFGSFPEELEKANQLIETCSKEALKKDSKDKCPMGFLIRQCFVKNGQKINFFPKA
Outline: (§1)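 Fluorescence competitive binding used 2.0 µM SfurOBP and 2.0 µM 1-NPN reporter in 50 mM Tris-HCl, pH 7.4, with odorants at 2-20 µM. Fluorescence was read 2 min after adding the odorant (excitation 337 nm, emission 390-490 nm), in triplicate. Ki was calculated from IC50 as IC50/(1 + [1-NPN]/K1-NPN).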

SfurOBP11 = SfurOBP11 (Sogatella furcifera, UniProt V5T6E3); assay: biochemical; assay type: binding
SfurOBP11, sequence (V5T6E3 entry or part of it): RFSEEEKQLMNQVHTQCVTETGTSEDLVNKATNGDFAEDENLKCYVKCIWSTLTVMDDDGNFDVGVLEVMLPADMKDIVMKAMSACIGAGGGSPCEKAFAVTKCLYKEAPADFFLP
Outline: as §1

SfurOBP2 = SfurOBP2 (Sogatella furcifera, UniProt V5T759); assay: biochemical; assay type: binding
SfurOBP2, sequence (V5T759 entry or part of it): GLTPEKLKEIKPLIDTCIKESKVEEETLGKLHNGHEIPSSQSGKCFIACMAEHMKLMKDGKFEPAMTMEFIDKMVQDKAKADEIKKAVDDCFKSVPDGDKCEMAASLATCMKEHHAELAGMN
Outline: as §1

SfurOBP3 = SfurOBP3 (Sogatella furcifera, UniProt V5T818); assay: biochemical; assay type: binding; details: for Fluorescence competitive binding assay, fluorescence intensity: OBP3, three replicate columns
SfurOBP3, sequence (V5T818 entry or part of it): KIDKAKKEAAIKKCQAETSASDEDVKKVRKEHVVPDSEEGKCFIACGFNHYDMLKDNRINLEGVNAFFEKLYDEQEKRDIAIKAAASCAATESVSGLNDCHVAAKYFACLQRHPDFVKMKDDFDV
Outline: as §1

S. furcifera adults = assay: Y-tube olfactometer behavioral trials; assay type: in vivo, Sogatella furcifera; details: odorant 50 µL/L vs hexane; adults
Outline: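 Single S. furcifera adults (2 days post-emergence, starved 0.5 h) chose between odorant (100 µL of 50 µL/L on filter paper) and hexane control in a glass Y-tube, charcoal-filtered humidified air 300 mL/min per arm, 25 ± 1 °C, 50% RH. Choice scored if insect passed half an arm and stayed >1 min within 10 min; 45 insects per compound, chi-squared test.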

CCCCCCC=CCO [2-nonen-1-ol]
Fluorescence competitive binding assay, fluorescence intensity (SfurOBP1; ligand concentration 2 (μM)): 6522 and 6473 and 6498 | Fluorescence competitive binding assay, fluorescence intensity (SfurOBP1; ligand concentration 4 (μM)): 5655 and 6432 and 6908 | Fluorescence competitive binding assay, fluorescence intensity (SfurOBP1; ligand concentration 6 (μM)): 8453 and 7604 and 7714 | Fluorescence competitive binding assay, fluorescence intensity (SfurOBP1; ligand concentration 8 (μM)): 8297 and 7919 and 6967 | Fluorescence competitive binding assay, fluorescence intensity (SfurOBP1; ligand concentration 10 (μM)): 6386 and 8717 and 6918 | Fluorescence competitive binding assay, fluorescence intensity (SfurOBP1; ligand concentration 12 (μM)): 6193 and 7108 and 6694 | Fluorescence competitive binding assay, fluorescence intensity (SfurOBP1; ligand concentration 14 (μM)): 6199 and 6820 and 8443 | Fluorescence competitive binding assay, fluorescence intensity (SfurOBP1; ligand concentration 16 (μM)): 5457 and 5916 and 5787 | Fluorescence competitive binding assay, fluorescence intensity (SfurOBP1; ligand concentration 18 (μM)): 6097 and 9706 and 8104 | Fluorescence competitive binding assay, fluorescence intensity (SfurOBP1; ligand concentration 20 (μM)): 6801 and 6290 and 6295 | IC50 (SfurOBP1; SfurOBP1, protein and 1-NPN both 2.0 µM, competitor 2-20 µM, read-out: IC50): > 20 µM | IC50 (SfurOBP11; SfurOBP11, protein and 1-NPN both 2.0 µM, competitor 2-20 µM, read-out: IC50): > 20 µM | Fluorescence intensity, fluorescence competitive binding assay, OBP11 (SfurOBP11; ligand concentration 2, replicate 1): 37643 | Fluorescence intensity, fluorescence competitive binding assay, OBP11 (SfurOBP11; ligand concentration 2, replicate 2): 35290 | Fluorescence intensity, fluorescence competitive binding assay, OBP11 (SfurOBP11; ligand concentration 2, replicate 3): 44360 | Fluorescence intensity, fluorescence competitive binding assay, OBP11 (SfurOBP11; ligand concentration 4, replicate 1): 35859 | Fluorescence intensity, fluorescence competitive binding assay, OBP11 (SfurOBP11; ligand concentration 4, replicate 2): 39342 | Fluorescence intensity, fluorescence competitive binding assay, OBP11 (SfurOBP11; ligand concentration 4, replicate 3): 34938 | Fluorescence intensity, fluorescence competitive binding assay, OBP11 (SfurOBP11; ligand concentration 6, replicate 1): 34140 | Fluorescence intensity, fluorescence competitive binding assay, OBP11 (SfurOBP11; ligand concentration 6, replicate 2): 38169 | Fluorescence intensity, fluorescence competitive binding assay, OBP11 (SfurOBP11; ligand concentration 6, replicate 3): 36155 | Fluorescence intensity, fluorescence competitive binding assay, OBP11 (SfurOBP11; ligand concentration 8, replicate 1): 32705 | Fluorescence intensity, fluorescence competitive binding assay, OBP11 (SfurOBP11; ligand concentration 8, replicate 2): 34472 | Fluorescence intensity, fluorescence competitive binding assay, OBP11 (SfurOBP11; ligand concentration 8, replicate 3): 34378 | Fluorescence intensity, fluorescence competitive binding assay, OBP11 (SfurOBP11; ligand concentration 10, replicate 1): 32486 | Fluorescence intensity, fluorescence competitive binding assay, OBP11 (SfurOBP11; ligand concentration 10, replicate 2): 33152 | Fluorescence intensity, fluorescence competitive binding assay, OBP11 (SfurOBP11; ligand concentration 10, replicate 3): 33818 | Fluorescence intensity, fluorescence competitive binding assay, OBP11 (SfurOBP11; ligand concentration 12, replicate 1): 28113 | Fluorescence intensity, fluorescence competitive binding assay, OBP11 (SfurOBP11; ligand concentration 12, replicate 2): 29890 | Fluorescence intensity, fluorescence competitive binding assay, OBP11 (SfurOBP11; ligand concentration 12, replicate 3): 30957 | Fluorescence intensity, fluorescence competitive binding assay, OBP11 (SfurOBP11; ligand concentration 14, replicate 1): 27880 | Fluorescence intensity, fluorescence competitive binding assay, OBP11 (SfurOBP11; ligand concentration 14, replicate 2): 28227 | Fluorescence intensity, fluorescence competitive binding assay, OBP11 (SfurOBP11; ligand concentration 14, replicate 3): 28574 | Fluorescence intensity, fluorescence competitive binding assay, OBP11 (SfurOBP11; ligand concentration 16, replicate 1): 24059 | Fluorescence intensity, fluorescence competitive binding assay, OBP11 (SfurOBP11; ligand concentration 16, replicate 2): 25490 | Fluorescence intensity, fluorescence competitive binding assay, OBP11 (SfurOBP11; ligand concentration 16, replicate 3): 25182 | Fluorescence intensity, fluorescence competitive binding assay, OBP11 (SfurOBP11; ligand concentration 18, replicate 1): 30643 | Fluorescence intensity, fluorescence competitive binding assay, OBP11 (SfurOBP11; ligand concentration 18, replicate 2): 29725 | Fluorescence intensity, fluorescence competitive binding assay, OBP11 (SfurOBP11; ligand concentration 18, replicate 3): 31591 | Fluorescence intensity, fluorescence competitive binding assay, OBP11 (SfurOBP11; ligand concentration 20, replicate 1): 30015 | Fluorescence intensity, fluorescence competitive binding assay, OBP11 (SfurOBP11; ligand concentration 20, replicate 2): 28576 | Fluorescence intensity, fluorescence competitive binding assay, OBP11 (SfurOBP11; ligand concentration 20, replicate 3): 24669 | IC50 (SfurOBP2; SfurOBP2, protein and 1-NPN both 2.0 µM, competitor 2-20 µM, read-out: IC50): > 20 µM | Fluorescence competitive binding assay, OBP2 (raw fluorescence reading) (SfurOBP2; ligand concentration 2 (unit not given), replicate column 1 of 3): 23899 | Fluorescence competitive binding assay, OBP2 (raw fluorescence reading) (SfurOBP2; ligand concentration 2 (unit not given), replicate column 2 of 3): 21462 | Fluorescence competitive binding assay, OBP2 (raw fluorescence reading) (SfurOBP2; ligand concentration 2 (unit not given), replicate column 3 of 3): 22264 | Fluorescence competitive binding assay, OBP2 (raw fluorescence reading) (SfurOBP2; ligand concentration 4 (unit not given), replicate column 1 of 3): 25374 | Fluorescence competitive binding assay, OBP2 (raw fluorescence reading) (SfurOBP2; ligand concentration 4 (unit not given), replicate column 2 of 3): 25147 | Fluorescence competitive binding assay, OBP2 (raw fluorescence reading) (SfurOBP2; ligand concentration 4 (unit not given), replicate column 3 of 3): 24357 | Fluorescence competitive binding assay, OBP2 (raw fluorescence reading) (SfurOBP2; ligand concentration 6 (unit not given), replicate column 1 of 3): 25139 | Fluorescence competitive binding assay, OBP2 (raw fluorescence reading) (SfurOBP2; ligand concentration 6 (unit not given), replicate column 2 of 3): 24429 | Fluorescence competitive binding assay, OBP2 (raw fluorescence reading) (SfurOBP2; ligand concentration 6 (unit not given), replicate column 3 of 3): 24096 | Fluorescence competitive binding assay, OBP2 (raw fluorescence reading) (SfurOBP2; ligand concentration 8 (unit not given), replicate column 1 of 3): 22380 | Fluorescence competitive binding assay, OBP2 (raw fluorescence reading) (SfurOBP2; ligand concentration 8 (unit not given), replicate column 2 of 3): 22288 | Fluorescence competitive binding assay, OBP2 (raw fluorescence reading) (SfurOBP2; ligand concentration 8 (unit not given), replicate column 3 of 3): 21248 | Fluorescence competitive binding assay, OBP2 (raw fluorescence reading) (SfurOBP2; ligand concentration 10 (unit not given), replicate column 1 of 3): 20934 | Fluorescence competitive binding assay, OBP2 (raw fluorescence reading) (SfurOBP2; ligand concentration 10 (unit not given), replicate column 2 of 3): 21198 | Fluorescence competitive binding assay, OBP2 (raw fluorescence reading) (SfurOBP2; ligand concentration 10 (unit not given), replicate column 3 of 3): 20778 | Fluorescence competitive binding assay, OBP2 (raw fluorescence reading) (SfurOBP2; ligand concentration 12 (unit not given), replicate column 1 of 3): 19074 | Fluorescence competitive binding assay, OBP2 (raw fluorescence reading) (SfurOBP2; ligand concentration 12 (unit not given), replicate column 2 of 3): 19350 | Fluorescence competitive binding assay, OBP2 (raw fluorescence reading) (SfurOBP2; ligand concentration 12 (unit not given), replicate column 3 of 3): 18397 | Fluorescence competitive binding assay, OBP2 (raw fluorescence reading) (SfurOBP2; ligand concentration 14 (unit not given), replicate column 1 of 3): 16875 | Fluorescence competitive binding assay, OBP2 (raw fluorescence reading) (SfurOBP2; ligand concentration 14 (unit not given), replicate column 2 of 3): 19948 | Fluorescence competitive binding assay, OBP2 (raw fluorescence reading) (SfurOBP2; ligand concentration 14 (unit not given), replicate column 3 of 3): 17641 | Fluorescence competitive binding assay, OBP2 (raw fluorescence reading) (SfurOBP2; ligand concentration 16 (unit not given), replicate column 1 of 3): 16016 | Fluorescence competitive binding assay, OBP2 (raw fluorescence reading) (SfurOBP2; ligand concentration 16 (unit not given), replicate column 2 of 3): 16681 | Fluorescence competitive binding assay, OBP2 (raw fluorescence reading) (SfurOBP2; ligand concentration 16 (unit not given), replicate column 3 of 3): 14367 | Fluorescence competitive binding assay, OBP2 (raw fluorescence reading) (SfurOBP2; ligand concentration 18 (unit not given), replicate column 1 of 3): 17119 | Fluorescence competitive binding assay, OBP2 (raw fluorescence reading) (SfurOBP2; ligand concentration 18 (unit not given), replicate column 2 of 3): 16819 | Fluorescence competitive binding assay, OBP2 (raw fluorescence reading) (SfurOBP2; ligand concentration 18 (unit not given), replicate column 3 of 3): 15979 | Fluorescence competitive binding assay, OBP2 (raw fluorescence reading) (SfurOBP2; ligand concentration 20 (unit not given), replicate column 1 of 3): 16047 | Fluorescence competitive binding assay, OBP2 (raw fluorescence reading) (SfurOBP2; ligand concentration 20 (unit not given), replicate column 2 of 3): 15694 | Fluorescence competitive binding assay, OBP2 (raw fluorescence reading) (SfurOBP2; ligand concentration 20 (unit not given), replicate column 3 of 3): 13725 | Fluorescence competitive binding assay, fluorescence intensity (SfurOBP3; ligand concentration 2): 69777 and 64977 and 64069 | Fluorescence competitive binding assay, fluorescence intensity (SfurOBP3; ligand concentration 4): 69897 and 66654 and 59281 | Fluorescence competitive binding assay, fluorescence intensity (SfurOBP3; ligand concentration 6): 72805 and 63593 and 63408 | Fluorescence competitive binding assay, fluorescence intensity (SfurOBP3; ligand concentration 8): 68908 and 64822 and 61456 | Fluorescence competitive binding assay, fluorescence intensity (SfurOBP3; ligand concentration 10): 63843 and 54968 and 55110 | Fluorescence competitive binding assay, fluorescence intensity (SfurOBP3; ligand concentration 12): 59021 and 51372 and 52724 | Fluorescence competitive binding assay, fluorescence intensity (SfurOBP3; ligand concentration 14): 52703 and 46147 and 50940 | Fluorescence competitive binding assay, fluorescence intensity (SfurOBP3; ligand concentration 16): 47036 and 45518 and 44907 | Fluorescence competitive binding assay, fluorescence intensity (SfurOBP3; ligand concentration 18): 49989 and 48773 and 43710 | Fluorescence competitive binding assay, fluorescence intensity (SfurOBP3; ligand concentration 20): 40319 and 40656 and 42300 | IC50 (SfurOBP3; SfurOBP3, protein and 1-NPN both 2.0 µM, competitor 2-20 µM, read-out: IC50): > 20 µM | number of insects choosing hexane arm (S. furcifera adults): 12 | number of insects choosing volatilies arm (S. furcifera adults): 18 | number of insects failed (no choice) (S. furcifera adults): 10
